± gives the expanded uncertainty stated by the source.
How the values were obtained:
[1] = 101 kPa, Liquid; for viscosity: Concentric cylinders viscometry; for mass density: Vibrating tube method
[2] = xn = mol fraction of the nth substance listed; conditions: 101 kPa, Liquid; for viscosity: Concentric cylinders viscometry; for mass density: Vibrating tube method

Structure (SMILES)	viscosity ([1]; 303.15 K) [mPa·s]	mass density ([1]; 303.15 K) [kg/m3]	viscosity ([1]; 313.15 K) [mPa·s]	mass density ([1]; 313.15 K) [kg/m3]	viscosity ([1]; 323.15 K) [mPa·s]	mass density ([1]; 323.15 K) [kg/m3]	viscosity ([1]; 333.15 K) [mPa·s]	mass density ([1]; 333.15 K) [kg/m3]	viscosity ([1]; 343.15 K) [mPa·s]	mass density ([1]; 343.15 K) [kg/m3]	viscosity ([2]; 303.15 K, x2 = 0) [mPa·s]	mass density ([2]; 303.15 K, x2 = 0) [kg/m3]	viscosity ([2]; 313.15 K, x2 = 0) [mPa·s]	mass density ([2]; 313.15 K, x2 = 0) [kg/m3]	viscosity ([2]; 323.15 K, x2 = 0) [mPa·s]	mass density ([2]; 323.15 K, x2 = 0) [kg/m3]	viscosity ([2]; 333.15 K, x2 = 0) [mPa·s]	mass density ([2]; 333.15 K, x2 = 0) [kg/m3]	viscosity ([2]; 343.15 K, x2 = 0) [mPa·s]	mass density ([2]; 343.15 K, x2 = 0) [kg/m3]	further results
OCCOCCO [diethylene glycol]	22.5 ± 0.2	1110 ± 0.5	14.9 ± 0.1	1103 ± 0.5	10.4 ± 0.1	1095.9 ± 0.5	7.6 ± 0.06	1088.5 ± 0.5	5.75 ± 0.05	1081.1 ± 0.5											
OCCOCCO [diethylene glycol] + O=S1(=O)CCCC1											22.5 ± 0.2	1110 ± 0.5	14.9 ± 0.1	1103 ± 0.5	10.4 ± 0.1	1095.9 ± 0.5	7.6 ± 0.06	1088.5 ± 0.5	5.75 ± 0.05	1081.1 ± 0.5	
O=S1(=O)CCCC1 [sulfolane]	10.4 ± 0.1	1262.9 ± 0.6	8.07 ± 0.07	1254.1 ± 0.6	6.45 ± 0.06	1245.2 ± 0.6	5.22 ± 0.05	1236.6 ± 0.6	4.32 ± 0.04	1228.1 ± 0.6											
O=S1(=O)CCCC1 [sulfolane] + OCCOCCOCCO																					viscosity ([2]; 303.15 K, x1 = 1): 10.4 ± 0.1 mPa·s; mass density ([2]; 303.15 K, x1 = 1): 1262.9 ± 0.6 kg/m3; viscosity ([2]; 313.15 K, x1 = 1): 8.07 ± 0.07 mPa·s; mass density ([2]; 313.15 K, x1 = 1): 1254.1 ± 0.6 kg/m3; viscosity ([2]; 323.15 K, x1 = 1): 6.45 ± 0.06 mPa·s; mass density ([2]; 323.15 K, x1 = 1): 1245.2 ± 0.6 kg/m3; viscosity ([2]; 333.15 K, x1 = 1): 5.22 ± 0.05 mPa·s; mass density ([2]; 333.15 K, x1 = 1): 1236.6 ± 0.6 kg/m3; viscosity ([2]; 343.15 K, x1 = 1): 4.32 ± 0.04 mPa·s; mass density ([2]; 343.15 K, x1 = 1): 1228.1 ± 0.6 kg/m3
OCCOCCOCCO [triethylene glycol]	29.5 ± 0.3	1116.5 ± 0.5	19.3 ± 0.2	1108.9 ± 0.5	13.3 ± 0.1	1101.1 ± 0.5	9.58 ± 0.08	1093.4 ± 0.5	7.16 ± 0.06	1085.5 ± 0.5											

Now from value to compound, other results behind:

viscosity ([1]; 303.15 K) [mPa·s]	mass density ([1]; 303.15 K) [kg/m3]	viscosity ([1]; 313.15 K) [mPa·s]	mass density ([1]; 313.15 K) [kg/m3]	viscosity ([1]; 323.15 K) [mPa·s]	mass density ([1]; 323.15 K) [kg/m3]	viscosity ([1]; 333.15 K) [mPa·s]	mass density ([1]; 333.15 K) [kg/m3]	viscosity ([1]; 343.15 K) [mPa·s]	mass density ([1]; 343.15 K) [kg/m3]	viscosity ([2]; 303.15 K, x2 = 0) [mPa·s]	mass density ([2]; 303.15 K, x2 = 0) [kg/m3]	viscosity ([2]; 313.15 K, x2 = 0) [mPa·s]	mass density ([2]; 313.15 K, x2 = 0) [kg/m3]	viscosity ([2]; 323.15 K, x2 = 0) [mPa·s]	mass density ([2]; 323.15 K, x2 = 0) [kg/m3]	viscosity ([2]; 333.15 K, x2 = 0) [mPa·s]	mass density ([2]; 333.15 K, x2 = 0) [kg/m3]	viscosity ([2]; 343.15 K, x2 = 0) [mPa·s]	mass density ([2]; 343.15 K, x2 = 0) [kg/m3]	Structure (SMILES)	further results
2.51 ± 0.02	799.3 ± 0.4	1.78 ± 0.02	790.7 ± 0.4	1.31 ± 0.01	781.7 ± 0.4	0.99 ± 0.01	772.1 ± 0.4	0.78 ± 0.01	762 ± 0.4											CCC(C)O (stereo not given) [butan-2-ol]	
										2.51 ± 0.02	799.3 ± 0.4	1.78 ± 0.02	790.7 ± 0.4	1.31 ± 0.01	781.7 ± 0.4	0.99 ± 0.01	772.1 ± 0.4	0.78 ± 0.01	762 ± 0.4	CCC(C)O (stereo not given) [butan-2-ol] + O=S1(=O)CCCC1	
1.78 ± 0.02	777.5 ± 0.4	1.34 ± 0.01	768.8 ± 0.4	1.03 ± 0.01	759.7 ± 0.4	0.79 ± 0.01	750 ± 0.4	0.64 ± 0.01	739.5 ± 0.4											CC(C)O [propan-2-ol]	
										1.78 ± 0.02	777.5 ± 0.4	1.34 ± 0.01	768.8 ± 0.4	1.03 ± 0.01	759.7 ± 0.4	0.79 ± 0.01	750 ± 0.4	0.64 ± 0.01	739.5 ± 0.4	CC(C)O [propan-2-ol] + O=S1(=O)CCCC1	
